Activity calls are given as the source filed them. The calls are words filed in the database; no cut-off is given here.
Legend:
Escherichia coli [1] = assay: Induction of plasma membrane disruption in Escherichia coli ATCC 25922 at 4 ug/mL after 2 hrs by Sytox dye based assay; assay type: functional, organism-based
Escherichia coli [2] = assay: Induction of redox process disruption in Escherichia coli ATCC 25922 at 4 ug/mL after 2 hrs by CTC dye based assay; assay type: functional, organism-based
Staphylococcus aureus [3] = assay: Induction of plasma membrane disruption in Staphylococcus aureus ATCC 25923 at 8 ug/mL after 10 mins by Sytox dye based assay; assay type: functional, organism-based
Escherichia coli [4] = assay: Induction of plasma membrane disruption in Escherichia coli ATCC 25922 a 4 ug/mL after 10 mins by Sytox dye based assay; assay type: functional, organism-based
Staphylococcus aureus [5] = assay: Antibacterial activity against Staphylococcus aureus ATCC 25923 after 12 to 18 hrs by broth dilution method; assay type: functional
Escherichia coli [6] = assay: Induction of plasma membrane disruption in Escherichia coli ATCC 25922 at 2 mg/mL after 2 hrs by Sytox dye based assay; assay type: functional, organism-based
Staphylococcus aureus [7] = assay: Induction of redox process disruption in Staphylococcus aureus ATCC 25923 at 0.064 ug/mL after 6 hrs by CTC dye based assay; assay type: functional, organism-based
Staphylococcus aureus [8] = assay: Induction of redox process disruption in Staphylococcus aureus ATCC 25923 at 8 ug/mL after 6 hrs by CTC dye based assay; assay type: functional, organism-based
Staphylococcus aureus [9] = assay: Induction of plasma membrane disruption in Staphylococcus aureus ATCC 25923 at 0.064 ug/mL after 10 mins by Sytox dye based assay; assay type: functional, organism-based
Staphylococcus aureus [10] = assay: Induction of plasma membrane disruption in Staphylococcus aureus ATCC 25923 at 8 ug/mL after 2 hrs by Sytox dye based assay; assay type: functional, organism-based
Escherichia coli [11] = assay: Induction of redox process disruption in Escherichia coli ATCC 25922 at 4 ug/mL after 6 hrs by CTC dye based assay; assay type: functional, organism-based
Staphylococcus aureus [12] = assay: Induction of plasma membrane disruption in Staphylococcus aureus ATCC 25923 at 0.064 ug/mL after 2 hrs by Sytox dye based assay; assay type: functional, organism-based
Staphylococcus aureus [13] = assay: Induction of redox process disruption in Staphylococcus aureus ATCC 25923 at 8 ug/mL after 2 hrs by CTC dye based assay; assay type: functional, organism-based
Staphylococcus aureus [14] = assay: Induction of redox process disruption in Staphylococcus aureus ATCC 25923 at 0.064 ug/mL after 2 hrs by CTC dye based assay; assay type: functional, organism-based
Escherichia coli [15] = assay: Induction of redox process disruption in Escherichia coli ATCC 25922 at 2 mg/mL after 2 hrs by CTC dye based assay; assay type: functional, organism-based
Escherichia coli [16] = assay: Induction of redox process disruption in Escherichia coli ATCC 25922 at 2 mg/mL after 6 hrs by CTC dye based assay; assay type: functional, organism-based
Escherichia coli [17] = assay: Antibacterial activity against Escherichia coli ATCC 25922 after 12 to 18 hrs by broth dilution method; assay type: functional
Escherichia coli [18] = assay: Induction of plasma membrane disruption in Escherichia coli ATCC 25922 at 2 mg/mL after 10 mins by Sytox dye based assay; assay type: functional, organism-based

| Compound | Activity (Escherichia coli [1]) | Activity (Escherichia coli [2]) | Activity (Staphylococcus aureus [3]) | Activity (Escherichia coli [4]) | MIC (Staphylococcus aureus [5]) | Activity (Escherichia coli [6]) | Activity (Staphylococcus aureus [7]) | Activity (Staphylococcus aureus [8]) | Activity (Staphylococcus aureus [9]) | Activity (Staphylococcus aureus [10]) | Activity (Escherichia coli [11]) | Activity (Staphylococcus aureus [12]) | Activity (Staphylococcus aureus [13]) | Activity (Staphylococcus aureus [14]) | Activity (Escherichia coli [15]) | Activity (Escherichia coli [16]) | MIC (Escherichia coli [17]) | Activity (Escherichia coli [18]) |
| --- | --- | --- | --- | --- | --- | --- | --- | --- | --- | --- | --- | --- | --- | --- | --- | --- | --- | --- |
| CCCCCCCCn1n[n+](CC)c2c1C(=O)c1ccccc1C2=O.[Cl-] | inactive | inactive | inactive | inactive | 0.25 mg/L | Active | inactive | Active | inactive | inactive | inactive | inactive | Active | inactive | Active | Active | ≥ 250 mg/L | Active |
| CCCCCCCCCn1n[n+](C)c2c1C(=O)c1ccccc1C2=O.[Cl-] | inactive | inactive | inactive | inactive | 0.032 mg/L | Active | inactive | Active | inactive | inactive | inactive | inactive | Active | inactive | Active | Active | 64 mg/L | Active |
| Hexadecyltrimethylammonium bromide | – | – | – | – | – | Active | – | – | – | – | – | – | – | – | – | – | – | Active |
| CCCCCCCCCCCn1n[n+](C)c2c1C(=O)c1ccccc1C2=O.[Cl-] | inactive | inactive | inactive | inactive | 0.25 mg/L | Active | inactive | Active | inactive | inactive | inactive | inactive | Active | inactive | Active | Active | 32 mg/L | Active |
| CCCCCCCCn1n[n+](C)c2c1C(=O)c1ccccc1C2=O.[Cl-] | inactive | inactive | inactive | inactive | 0.032 mg/L | Active | inactive | Active | inactive | inactive | inactive | inactive | Active | inactive | Active | Active | 16 mg/L | Active |
| CCCCCCCCCCn1n[n+](C)c2c1C(=O)c1ccccc1C2=O.[Cl-] | inactive | inactive | inactive | inactive | 0.032 mg/L | Active | inactive | Active | inactive | inactive | inactive | inactive | Active | inactive | Active | Active | 32 mg/L | Active |
| CCCCCCCCCCCCn1n[n+](C)c2c1C(=O)c1ccccc1C2=O.[Cl-] | inactive | inactive | inactive | inactive | 0.064 mg/L | Active | inactive | Active | inactive | inactive | inactive | inactive | Active | inactive | Active | Active | 16 mg/L | Active |
| CCCCCCCCCCCCCCCCn1n[n+](C)c2c1C(=O)c1ccccc1C2=O.[Cl-] | inactive | inactive | inactive | inactive | 0.25 mg/L | Active | inactive | Active | inactive | inactive | inactive | inactive | Active | inactive | Active | Active | ≥ 250 mg/L | Active |
